Experimental data taken from US10273221B2, “Microbiocidal heterobicyclic derivatives” (Syngenta Participations AG, priority 2015, dated 2019).

Assays:
[1] = system: Monographella nivalis (Microdochium nivale); test: Monographella nivalis (Microdochium nivale) / liquid culture (foot rot cereals); type: cell-based; conditions: 96 h, growth inhibition determined photometrically 4-5 days after application, vs untreated control, read-out: disease control
[2] = system: Botryotinia fuckeliana (Botrytis cinerea); test: Botryotinia fuckeliana (Botrytis cinerea) / liquid culture (gray mould); type: cell-based; conditions: growth inhibition determined photometrically 3-4 days after application, vs untreated control, read-out: disease control
Pyrenophora teres [3] = test: Pyrenophora teres / liquid culture (net blotch); type: cell-based; conditions: growth inhibition determined photometrically 3-4 days after application, vs untreated control
[4] = system: Glomerella lagenarium (Colletotrichum lagenarium); test: Glomerella lagenarium (Colletotrichum lagenarium) / liquid culture (anthracnose); type: cell-based; conditions: Colletotrichum orbiculare, growth inhibition measured photometrically 3-4 days after application, vs untreated control, read-out: disease control
Sclerotinia sclerotiorum = Sclerotinia sclerotiorum / liquid culture (cottony rot); conditions: 72 h, read-out: control of Sclerotinia sclerotiorum
Procedure: Sclerotinia sclerotiorum/Liquid Culture (Cottony Rot)
Mycelia fragments of a newly grown liquid culture of the fungus are directly mixed into nutrient broth (Vogels broth). After placing a (DMSO) solution of test compound into a microtiter plate (96-well format) the nutrient broth containing the fungal material is added. The test plates are incubated at 24° C. and the inhibition of growth is determined photometrically 3-4 days after application.

Pyrenophora teres [5] = test: Pyrenophora teres / barley / leaf disc preventative (net blotch); type: in vivo; conditions: 200 ppm, barley leaf segments cv. Hasso, inoculated 2 days after application, assessed 5-7 days after application
Procedure: Pyrenophora teres/Barley/Leaf Disc Preventative (Net Blotch)
Barley leaf segments cv. Hasso are placed on agar in a multiwell plate (24-well format) and sprayed with the formulated test compound diluted in water. The leaf segmens are inoculated with a spore suspension of the fungus 2 days after application. The inoculated leaf segments are incubated at 20° C. and 65% rh under a light regime of 12 h light/12 h darkness in a climate cabinet and the activity of a compound is assessed as disease control compared to untreated when an appropriate level of disease damage appears in untreated check leaf segments (5-7 days after application).

Gaeumannomyces graminis = Gaeumannomyces graminis / liquid culture (take-all of cereals); type: cell-based; conditions: growth inhibition determined photometrically 4-5 days after application, vs untreated control, read-out: disease control
Fusarium culmorum = test: microbe, parasite or virus in culture; type: cell-based; conditions: 72 h, read-out: disease control
[6] = system: Magnaporthe grisea (Pyricularia oryzae); test: microbe, parasite or virus in culture; type: cell-based; conditions: 72 h, read-out: control of Magnaporthe grisea
[7] = system: Mycosphaerella graminicola (Septoria tritici); test: Mycosphaerella graminicola (Septoria tritici) / liquid culture (Septoria blotch); type: cell-based; conditions: Zymoseptoria tritici, 96 h, growth inhibition determined photometrically 4-5 days after application, vs untreated control, read-out: disease control

Structure (SMILES)	inhibition of growth at 200 ppm [1]	inhibition of growth at 200 ppm [2]	inhibition of growth at 20 ppm (Pyrenophora teres [3])	inhibition of growth at 200 ppm [4]	inhibition of growth at 20 ppm (Sclerotinia sclerotiorum)	control of Pyrenophora teres (Pyrenophora teres [5])	inhibition of growth at 200 ppm (Gaeumannomyces graminis)	inhibition of growth at 200 ppm (Fusarium culmorum)	inhibition of growth at 20 ppm [6]	melting point	inhibition of growth at 200 ppm [7]
Cc1cccc2c1ncn2C1=NC(C)(C)C(C)(C)c2ccccc21 [E-16]	≥ 80%	≥ 80%	≥ 80%	≥ 80%	≥ 80%	at least 80%	≥ 80%	≥ 80%	≥ 80%		
Cc1cccc2c1ncn2C1=NC(C)(C)C(C)(C)c2c(F)cccc21 [E-1]	≥ 80%	≥ 80%	≥ 80%	≥ 80%	≥ 80%		≥ 80%	≥ 80%	≥ 80%	45 to 46 °C	≥ 80%
